Assay [1] in a line: Inhibition of human alpha thrombin by surface plasmon resonance assay.
Assay [2] can be described thus: Inhibition of human alpha thrombin by chromogenic substrate enzyme assay.

Data on 36 compounds can be found in ChEMBL document CHEMBL1138481, “Compounds binding to the S2-S3 pockets of thrombin” (J Med Chem, 2009).

`O=C(NCc1cccs1)[C@@H]1CCCN1C(=O)Cc1ccc2c(c1)OCO2` showed a Kd in assay [1] of 250 µM. The half-maximal inhibitory concentration (IC50) in assay [2] is more than 400 µM.
The like results for `CNC(=O)[C@@H]1CCCN1C(=O)CC1CCCCC1` were, in that order, more than 1000 µM and more than 400 µM.
The like results for `COCCNC(=O)[C@@H]1CCCN1C(=O)CCc1ccc(Cl)cc1` were, in that order, 620 µM and more than 400 µM.
The like results for `CCCNC(=O)[C@@H]1CCCN1C(=O)[C@H](N)Cc1ccc(Cl)cc1` were, in that order, 45 µM and 210 µM.
In assay [2], `CCCNC(=O)[C@@H]1CCCN1C(=O)[C@H](N)C(c1ccccc1)c1ccccc1` registered a concentration for half-maximal inhibition (IC50) of 18 µM.
In turn, `COCCNC(=O)[C@@H]1CCCN1C(=O)[C@H](N)C(c1ccccc1)c1ccccc1` had a dissociation constant (Kd) in assay [1] of 6.8 µM. In assay [2], this compound displayed a concentration for half-maximal inhibition (IC50) of 89 µM.
The like results for `CCCNC(=O)[C@@H]1CCCN1C(=O)CCc1ccc(Cl)cc1` were, in that order, more than 1000 µM and more than 400 µM.
`CC(C)CNC(=O)[C@@H]1CCCN1C(=O)[C@H](N)C1CCCCC1`: the dissociation constant Kd in assay [1] stood at 49 µM. The compound also showed an IC50 in assay [2] of 230 µM.
The like results for `N[C@@H](C(=O)N1CCC[C@H]1C(=O)NCC1CCCCC1)C1CCCCC1` were, in that order, 9 µM and 20 µM.
The like results for `CNC(=O)[C@@H]1CCCN1C(=O)CC(c1ccccc1)c1ccccc1` were, in that order, more than 1000 µM and more than 400 µM.
The like results for `COCCNC(=O)[C@@H]1CCCN1C(=O)CC1CCCCC1` were, in that order, more than 1000 µM and more than 400 µM.
Consider `CNC(=O)[C@@H]1CCCN1C(=O)CC1(O)c2ccccc2-c2ccccc21`, for which, in assay [1], the dissociation constant Kd is more than 1000 µM. The half-maximal inhibitory concentration (IC50) in assay [2] was more than 400 µM.
The like results for `COCCNC(=O)[C@@H]1CCCN1C(=O)CC1(O)c2ccccc2-c2ccccc21` were, in that order, 750 µM and more than 400 µM.
The like results for `CNC(=O)[C@@H]1CCCN1C(=O)Cc1ccc2c(c1)OCO2` were, in that order, more than 1000 µM and more than 400 µM.
The like results for `COCCNC(=O)[C@@H]1CCCN1C(=O)[C@H](N)Cc1ccc(Cl)cc1` were, in that order, 140 µM and more than 400 µM.
In assay [1], `N[C@H](Cc1ccc(Cl)cc1)C(=O)N1CCC[C@H]1C(=O)NCc1cccs1` displayed a dissociation constant (Kd) of 2.2 µM. Besides, half-maximal inhibition in assay [2] (IC50) required 13 µM.
The like results for `CNC(=O)[C@@H]1CCCN1C(=O)[C@H](NS(=O)(=O)Cc1ccccc1)C1CCCCC1` were, in that order, 35 µM and 170 µM.
The like results for `COCCNC(=O)[C@@H]1CCCN1C(=O)[C@H](O)C1CCCCC1` were, in that order, more than 1000 µM and more than 400 µM.
For `CCCNC(=O)[C@@H]1CCCN1C(=O)CC(c1ccccc1)c1ccccc1`, in assay [1], binding was characterised by a dissociation constant (Kd) of 270 µM. Besides, the IC50 in assay [2] is more than 400 µM.
On to `O=C(NCc1cccs1)[C@@H]1CCCN1C(=O)CC(c1ccccc1)c1ccccc1`, for which the equilibrium dissociation constant (Kd) in assay [1] is 34 µM. In assay [2], this compound yielded a half-maximal inhibitory concentration (IC50) of 120 µM.
The like results for `N[C@@H](C(=O)N1CCC[C@H]1C(=O)NCc1cccs1)C(c1ccccc1)c1ccccc1` were, in that order, 0.27 µM and 1.6 µM.
The like results for `CNC(=O)[C@@H]1CCCN1C(=O)[C@H](N)C1CCCCC1` were, in that order, 790 µM and more than 400 µM.
As to `O=C(NCc1cccs1)[C@@H]1CCCN1C(=O)CCc1ccc(Cl)cc1`, the equilibrium dissociation constant (Kd) in assay [1] amounted to 700 µM. The IC50 in assay [2] is more than 400 µM.
On to `CCCNC(=O)[C@@H]1CCCN1C(=O)Cc1ccc2c(c1)OCO2`, for which the Kd in assay [1] is more than 1000 µM. Besides, the IC50 in assay [2] is more than 400 µM.
The like results for `O=C(NCc1cccs1)[C@@H]1CCCN1C(=O)CC1(O)c2ccccc2-c2ccccc21` were, in that order, 23 µM and 49 µM.
The like results for `N[C@@H](C(=O)N1CCC[C@H]1C(=O)NCc1cccs1)C1CCCCC1` were, in that order, 1.1 µM and 4.2 µM.
The like results for `CCCNC(=O)[C@@H]1CCCN1C(=O)[C@H](N)C1CCCCC1` were, in that order, 27 µM and 120 µM.
For `COCCNC(=O)[C@@H]1CCCN1C(=O)[C@H](N)C1CCCCC1`, binding in assay [1] was characterised by a dissociation constant (Kd) of 110 µM. For the same compound, the IC50 in assay [2] is more than 400 µM.
Compound `CNC(=O)[C@@H]1CCCN1C(=O)[C@H](N)Cc1ccc(Cl)cc1` registered a Kd in assay [1] of 550 µM. Besides, the half-inhibitory concentration (IC50) in assay [2] is more than 400 µM.
In assay [1], `O=C(NCc1cccs1)[C@@H]1CCCN1C(=O)CC1CCCCC1` yielded a Kd of 1000 µM. In addition, in assay [2], the half-inhibitory concentration (IC50) is more than 400 µM.
The like results for `CCCNC(=O)[C@@H]1CCCN1C(=O)CC1CCCCC1` were, in that order, more than 1000 µM and more than 400 µM.
The like results for `CNC(=O)[C@@H]1CCCN1C(=O)[C@H](N)C(c1ccccc1)c1ccccc1` were, in that order, 38 µM and 230 µM.
The like results for `CCCNC(=O)[C@@H]1CCCN1C(=O)CC1(O)c2ccccc2-c2ccccc21` were, in that order, 99 µM and 380 µM.
For `COCCNC(=O)[C@@H]1CCCN1C(=O)Cc1ccc2c(c1)OCO2`, the Kd in assay [1] is more than 1000 µM. This compound also showed a half-maximal inhibitory concentration (IC50) in assay [2] of more than 400 µM.
The like results for `CNC(=O)[C@@H]1CCCN1C(=O)CCc1ccc(Cl)cc1` were, in that order, more than 1000 µM and more than 400 µM.
The like results for `COCCNC(=O)[C@@H]1CCCN1C(=O)CC(c1ccccc1)c1ccccc1` were, in that order, more than 1000 µM and more than 400 µM.
